Key:
Test in all cases: KINOMEscan
Format in all cases: binding
Details in all cases: read-out: percent of control
[1] = target: ABL1(M351T)-phosphorylated (Homo sapiens (Human), UniProt P00519, M351T)
Description: (§1) In vitro profiling of Compound I-2 (1 μM) was performed using the DiscoveRx KINOMEscan® platform.

ABL1-nonphosphorylated = ABL1-nonphosphorylated (Homo sapiens (Human), UniProt P00519)
Description: as §1

ASK1 = ASK1 (Homo sapiens (Human), UniProt Q99683)
Description: as §1

BMPR2 = BMPR2 (Homo sapiens (Human), UniProt Q13873)
Description: as §1

CAMK2B = CAMK2B (Homo sapiens (Human), UniProt Q13554)
CAMK2B, sequence (Q13554 whole entry): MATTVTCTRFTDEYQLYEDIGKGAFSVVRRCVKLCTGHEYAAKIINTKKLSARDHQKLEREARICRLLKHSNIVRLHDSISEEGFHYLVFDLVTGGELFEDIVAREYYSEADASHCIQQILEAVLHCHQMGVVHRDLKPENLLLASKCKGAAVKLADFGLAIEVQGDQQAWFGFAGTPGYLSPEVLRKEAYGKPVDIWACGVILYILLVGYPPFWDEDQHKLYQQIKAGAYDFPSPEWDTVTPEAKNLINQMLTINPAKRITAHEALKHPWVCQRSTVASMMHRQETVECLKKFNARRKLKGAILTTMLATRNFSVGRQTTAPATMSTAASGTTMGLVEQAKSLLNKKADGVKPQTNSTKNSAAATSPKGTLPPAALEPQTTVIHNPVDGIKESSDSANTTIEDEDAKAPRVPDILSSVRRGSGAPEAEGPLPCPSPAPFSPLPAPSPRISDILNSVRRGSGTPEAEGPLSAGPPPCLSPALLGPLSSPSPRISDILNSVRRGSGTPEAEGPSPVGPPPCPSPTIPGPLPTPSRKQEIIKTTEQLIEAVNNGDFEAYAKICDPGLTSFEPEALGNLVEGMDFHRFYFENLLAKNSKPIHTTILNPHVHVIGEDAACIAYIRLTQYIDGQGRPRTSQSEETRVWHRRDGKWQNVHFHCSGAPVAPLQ
Description: as §1

CSNK2A1 = CSNK2A1 (Homo sapiens (Human), UniProt P68400)
Description: as §1

DAPK2 = DAPK2 (Homo sapiens (Human), UniProt Q9UIK4)
Description: as §1

DAPK3 = DAPK3 (Homo sapiens (Human), UniProt O43293)
Description: as §1

DDR1 = DDR1 (Homo sapiens (Human), UniProt Q08345)
Description: as §1

DYRK2 = DYRK2 (Homo sapiens (Human), UniProt Q92630)
Description: as §1

EGFR = EGFR (Homo sapiens (Human), UniProt P00533)
Description: as §1

EPHA2 = EPHA2 (Homo sapiens (Human), UniProt P29317)
Description: as §1

EPHA5 = EPHA5 (Homo sapiens (Human), UniProt P54756)
Description: as §1

EPHA6 = EPHA6 (Homo sapiens (Human), UniProt Q9UF33)
Description: as §1

EPHA7 = EPHA7 (Homo sapiens (Human), UniProt Q15375)
Description: as §1

ERK8 = ERK8 (Homo sapiens (Human), UniProt Q8TD08)
ERK8, sequence (Q8TD08 whole entry): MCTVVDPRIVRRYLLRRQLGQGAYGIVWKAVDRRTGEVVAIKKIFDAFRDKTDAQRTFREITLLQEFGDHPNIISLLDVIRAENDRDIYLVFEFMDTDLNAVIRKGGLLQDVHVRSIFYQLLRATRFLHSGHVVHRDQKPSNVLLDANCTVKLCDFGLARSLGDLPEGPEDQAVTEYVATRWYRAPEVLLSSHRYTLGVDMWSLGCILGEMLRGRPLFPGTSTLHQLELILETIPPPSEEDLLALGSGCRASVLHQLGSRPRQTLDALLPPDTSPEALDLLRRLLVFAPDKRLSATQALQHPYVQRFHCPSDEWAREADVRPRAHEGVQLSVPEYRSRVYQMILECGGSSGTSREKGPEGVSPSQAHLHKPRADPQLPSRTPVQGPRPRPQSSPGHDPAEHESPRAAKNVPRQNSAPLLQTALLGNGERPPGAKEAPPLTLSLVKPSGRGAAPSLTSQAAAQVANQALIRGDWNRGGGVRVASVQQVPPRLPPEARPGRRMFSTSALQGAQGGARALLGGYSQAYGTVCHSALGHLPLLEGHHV
Description: as §1

FER = FER (Homo sapiens (Human), UniProt P16591)
Description: as §1

FGFR3 = FGFR3 (Homo sapiens (Human), UniProt P22607)
FGFR3, sequence (P22607 23-806): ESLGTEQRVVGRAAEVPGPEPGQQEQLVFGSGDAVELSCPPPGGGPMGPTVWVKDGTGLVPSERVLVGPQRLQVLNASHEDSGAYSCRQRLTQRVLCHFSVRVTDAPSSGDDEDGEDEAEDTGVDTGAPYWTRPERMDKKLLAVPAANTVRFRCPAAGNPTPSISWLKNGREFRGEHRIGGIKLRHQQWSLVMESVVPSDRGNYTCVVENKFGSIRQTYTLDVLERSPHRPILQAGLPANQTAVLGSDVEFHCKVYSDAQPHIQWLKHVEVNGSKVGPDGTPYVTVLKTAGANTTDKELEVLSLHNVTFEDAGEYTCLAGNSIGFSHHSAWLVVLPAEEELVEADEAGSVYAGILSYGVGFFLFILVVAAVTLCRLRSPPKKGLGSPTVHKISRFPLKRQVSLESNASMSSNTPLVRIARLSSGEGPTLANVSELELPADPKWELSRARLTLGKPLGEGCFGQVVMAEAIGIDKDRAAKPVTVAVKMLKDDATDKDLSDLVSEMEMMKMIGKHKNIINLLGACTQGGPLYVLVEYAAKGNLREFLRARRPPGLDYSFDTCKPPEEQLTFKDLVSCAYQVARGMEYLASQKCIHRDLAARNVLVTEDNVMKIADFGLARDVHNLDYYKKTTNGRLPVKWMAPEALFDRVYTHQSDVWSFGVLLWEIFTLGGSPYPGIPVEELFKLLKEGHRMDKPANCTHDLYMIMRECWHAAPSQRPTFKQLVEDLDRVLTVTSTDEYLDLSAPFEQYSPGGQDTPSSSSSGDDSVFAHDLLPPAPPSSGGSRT
Description: as §1

GRK2 = GRK2 (Homo sapiens (Human), UniProt P25098)
GRK2, sequence (P25098 whole entry): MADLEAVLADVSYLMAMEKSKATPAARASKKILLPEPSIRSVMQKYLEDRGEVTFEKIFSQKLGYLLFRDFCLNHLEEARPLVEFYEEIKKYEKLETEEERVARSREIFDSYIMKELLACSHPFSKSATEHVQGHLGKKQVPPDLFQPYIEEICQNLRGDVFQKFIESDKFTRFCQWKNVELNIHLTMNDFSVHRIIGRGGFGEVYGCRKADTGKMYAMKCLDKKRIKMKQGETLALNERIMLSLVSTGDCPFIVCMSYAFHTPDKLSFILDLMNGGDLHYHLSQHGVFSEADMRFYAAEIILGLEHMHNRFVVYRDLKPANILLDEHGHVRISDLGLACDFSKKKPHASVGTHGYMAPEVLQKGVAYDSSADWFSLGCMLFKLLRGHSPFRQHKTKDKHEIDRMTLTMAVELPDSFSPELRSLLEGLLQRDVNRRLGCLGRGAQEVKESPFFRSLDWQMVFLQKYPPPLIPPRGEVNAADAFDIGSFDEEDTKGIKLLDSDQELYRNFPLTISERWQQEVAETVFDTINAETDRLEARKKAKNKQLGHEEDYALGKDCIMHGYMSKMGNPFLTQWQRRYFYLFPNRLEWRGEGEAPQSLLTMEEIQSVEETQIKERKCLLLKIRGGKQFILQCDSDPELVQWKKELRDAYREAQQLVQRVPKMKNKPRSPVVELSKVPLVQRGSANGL
Description: as §1

IRAK1 = IRAK1 (Homo sapiens (Human), UniProt P51617)
Description: as §1

IRAK3 = IRAK3 (Homo sapiens (Human), UniProt Q9Y616)
Description: as §1

ITK = ITK (Homo sapiens (Human), UniProt Q08881)
Description: as §1

KIT(D816H) = KIT(D816H) (Homo sapiens (Human), UniProt P10721, D816H)
Description: as §1

LCK = LCK (Homo sapiens (Human), UniProt P06239)
Description: as §1

MAP4K5 = MAP4K5 (Homo sapiens (Human), UniProt Q9Y4K4)
Description: as §1

MEK1 = MEK1 (Homo sapiens (Human), UniProt Q02750)
Description: as §1

NEK2 = NEK2 (Homo sapiens (Human), UniProt P51955)
Description: as §1

PCTK3 = PCTK3 (Homo sapiens (Human), UniProt Q07002)
Description: as §1

PFCDPK1(P.falciparum) = PFCDPK1(P.falciparum) (Plasmodium falciparum (isolate 3D7), UniProt P62344)
Description: as §1

PFTAIRE2 = PFTAIRE2 (Homo sapiens (Human), UniProt Q96Q40)
Description: as §1

PKAC-beta = PKAC-beta (Homo sapiens (Human), UniProt P22694)
Description: as §1

PLK2 = PLK2 (Homo sapiens (Human), UniProt Q9NYY3)
Description: as §1

PRKCQ = PRKCQ (Homo sapiens (Human), UniProt Q04759)
Description: as §1

ROCK1 = ROCK1 (Homo sapiens (Human), UniProt Q13464)
ROCK1, sequence (Q13464 whole entry): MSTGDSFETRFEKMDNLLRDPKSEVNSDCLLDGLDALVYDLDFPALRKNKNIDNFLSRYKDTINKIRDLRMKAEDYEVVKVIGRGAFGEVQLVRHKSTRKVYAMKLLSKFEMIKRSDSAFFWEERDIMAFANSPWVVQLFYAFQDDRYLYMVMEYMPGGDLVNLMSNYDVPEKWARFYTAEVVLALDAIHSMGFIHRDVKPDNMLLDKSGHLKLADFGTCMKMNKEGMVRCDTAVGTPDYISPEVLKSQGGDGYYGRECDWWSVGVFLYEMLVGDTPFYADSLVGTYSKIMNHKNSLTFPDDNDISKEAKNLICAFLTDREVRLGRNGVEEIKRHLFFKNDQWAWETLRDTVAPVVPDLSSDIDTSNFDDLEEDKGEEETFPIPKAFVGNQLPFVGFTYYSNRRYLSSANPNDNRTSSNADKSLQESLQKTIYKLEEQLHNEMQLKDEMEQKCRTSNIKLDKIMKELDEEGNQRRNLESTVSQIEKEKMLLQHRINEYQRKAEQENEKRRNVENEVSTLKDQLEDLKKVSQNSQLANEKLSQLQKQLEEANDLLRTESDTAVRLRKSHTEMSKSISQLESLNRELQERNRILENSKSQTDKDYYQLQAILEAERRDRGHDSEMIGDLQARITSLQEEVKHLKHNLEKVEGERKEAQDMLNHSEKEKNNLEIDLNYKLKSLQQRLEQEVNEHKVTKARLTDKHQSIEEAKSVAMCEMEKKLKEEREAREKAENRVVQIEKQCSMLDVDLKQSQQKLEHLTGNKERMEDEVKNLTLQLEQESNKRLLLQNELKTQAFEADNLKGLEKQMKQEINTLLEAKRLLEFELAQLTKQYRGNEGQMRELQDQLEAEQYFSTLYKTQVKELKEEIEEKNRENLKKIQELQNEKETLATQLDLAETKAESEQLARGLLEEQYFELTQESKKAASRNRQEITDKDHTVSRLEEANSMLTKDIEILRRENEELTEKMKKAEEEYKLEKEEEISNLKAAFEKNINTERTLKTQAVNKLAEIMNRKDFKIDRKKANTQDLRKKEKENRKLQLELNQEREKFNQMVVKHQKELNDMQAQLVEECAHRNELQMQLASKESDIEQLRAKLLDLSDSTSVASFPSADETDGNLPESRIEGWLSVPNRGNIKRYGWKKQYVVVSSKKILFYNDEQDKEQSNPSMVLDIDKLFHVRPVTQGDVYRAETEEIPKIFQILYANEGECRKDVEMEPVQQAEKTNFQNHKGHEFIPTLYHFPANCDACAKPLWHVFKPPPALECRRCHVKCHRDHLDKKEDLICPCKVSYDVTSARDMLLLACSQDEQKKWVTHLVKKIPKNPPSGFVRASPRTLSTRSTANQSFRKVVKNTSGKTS
Description: as §1

STK35 = STK35 (Homo sapiens (Human), UniProt Q8TDR2)
Description: as §1

VRK2 = VRK2 (Homo sapiens (Human), UniProt Q86Y07)
VRK2, sequence (Q86Y07 whole entry): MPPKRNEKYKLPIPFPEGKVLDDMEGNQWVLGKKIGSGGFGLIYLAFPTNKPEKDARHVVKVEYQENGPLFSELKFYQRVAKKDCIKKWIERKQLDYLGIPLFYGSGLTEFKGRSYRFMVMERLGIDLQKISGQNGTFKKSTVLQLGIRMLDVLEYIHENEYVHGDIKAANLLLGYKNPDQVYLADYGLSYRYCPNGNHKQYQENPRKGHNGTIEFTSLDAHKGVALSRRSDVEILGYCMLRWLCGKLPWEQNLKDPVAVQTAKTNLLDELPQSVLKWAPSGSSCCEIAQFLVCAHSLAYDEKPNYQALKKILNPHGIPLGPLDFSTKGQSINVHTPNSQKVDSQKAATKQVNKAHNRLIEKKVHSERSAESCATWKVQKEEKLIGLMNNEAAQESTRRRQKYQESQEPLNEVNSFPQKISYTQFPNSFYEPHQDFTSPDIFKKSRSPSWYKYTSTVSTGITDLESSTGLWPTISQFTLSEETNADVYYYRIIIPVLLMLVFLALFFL
Description: as §1

YANK1 = YANK1 (Homo sapiens (Human), UniProt Q8WU08)
YANK1, sequence (Q8WU08 whole entry): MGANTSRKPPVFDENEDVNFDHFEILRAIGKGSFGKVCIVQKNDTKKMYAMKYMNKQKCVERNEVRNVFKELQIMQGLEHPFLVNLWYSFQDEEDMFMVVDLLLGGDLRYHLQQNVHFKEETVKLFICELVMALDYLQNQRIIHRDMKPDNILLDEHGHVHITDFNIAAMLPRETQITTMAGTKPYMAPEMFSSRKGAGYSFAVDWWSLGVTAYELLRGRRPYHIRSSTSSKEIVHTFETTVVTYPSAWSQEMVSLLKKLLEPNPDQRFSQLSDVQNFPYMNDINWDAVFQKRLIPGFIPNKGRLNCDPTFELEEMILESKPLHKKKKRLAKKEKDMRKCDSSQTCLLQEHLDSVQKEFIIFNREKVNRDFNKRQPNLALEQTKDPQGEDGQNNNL
Description: as §1

YANK3 = YANK3 (Homo sapiens (Human), UniProt Q86UX6)
Description: as §1

YSK1 = YSK1 (Homo sapiens (Human), UniProt O00506)
Description: as §1

SMILES	remaining binding at 1 µM [1]	remaining binding at 1 µM (ABL1-nonphosphorylated)	remaining binding at 1 µM (ASK1)	remaining binding at 1 µM (BMPR2)	remaining binding at 1 µM (CAMK2B)	remaining binding at 1 µM (CSNK2A1)	remaining binding at 1 µM (DAPK2)	remaining binding at 1 µM (DAPK3)	remaining binding at 1 µM (DDR1)	remaining binding at 1 µM (DYRK2)	remaining binding at 1 µM (EGFR)	remaining binding at 1 µM (EPHA2)	remaining binding at 1 µM (EPHA5)	remaining binding at 1 µM (EPHA6)	remaining binding at 1 µM (EPHA7)	remaining binding at 1 µM (ERK8)	remaining binding at 1 µM (FER)	remaining binding at 1 µM (FGFR3)	remaining binding at 1 µM (GRK2)	remaining binding at 1 µM (IRAK1)	also measured
CCN1CCN(Cc2cc(NC(=O)c3ccc(C)c(-c4ccc5nc(NC(=O)C6CC6)cn5n4)c3)cc(C(F)(F)F)c2)CC1 [Compound I-2, 3-(2-(cyclopropanecarboxamido)imidazo[1,2-b]pyridazin-6-yl)-N-(3-((4-ethylpiperazin-1-yl)methyl)-5-(trifluoromethyl)phenyl)-4-methylbenzamide]	0.8%	0%	97%	100%	100%	98%	94%	93%	0.05%	95%	31%	1.8%	2.3%	5.2%	3.3%	2.2%	29%	86%	94%	18%	remaining binding at 1 µM (IRAK3): 90%; remaining binding at 1 µM (ITK): 1.4%; remaining binding at 1 µM (KIT(D816H)): 38%; remaining binding at 1 µM (LCK): 0%; remaining binding at 1 µM (MAP4K5): 0.7%; remaining binding at 1 µM (MEK1): 92%; remaining binding at 1 µM (NEK2): 84%; remaining binding at 1 µM (PCTK3): 4.8%; remaining binding at 1 µM (PFCDPK1(P.falciparum)): 84%; remaining binding at 1 µM (PFTAIRE2): 0.9%; remaining binding at 1 µM (PKAC-beta): 92%; remaining binding at 1 µM (PLK2): 90%; remaining binding at 1 µM (PRKCQ): 27%; remaining binding at 1 µM (ROCK1): 86%; remaining binding at 1 µM (STK35): 69%; remaining binding at 1 µM (VRK2): 88%; remaining binding at 1 µM (YANK1): 93%; remaining binding at 1 µM (YANK3): 91%; remaining binding at 1 µM (YSK1): 61%
CCN1CCN(Cc2cc(NC(=O)c3ccc(C)c(-c4ccc5nc(NC(=O)C6CC6)cn5c4)c3)cc(C(F)(F)F)c2)CC1 [Compound I-6, 3-(2-(cyclopropanecarboxamido)imidazo[1,2-a]pyridin-6-yl)-N-(3-((4-ethylpiperazin-1-yl)methyl)-5-(trifluoromethyl)phenyl)-4-methylbenzamide]	0.5%	0.1%	100%	100%	100%	100%	100%	100%	0.15%	92%	24%	0.15%	2.5%	0.75%	2%	3.1%	6%	89%	63%	29%	remaining binding at 1 µM (IRAK3): 93%; remaining binding at 1 µM (ITK): 5.8%; remaining binding at 1 µM (KIT(D816H)): 29%; remaining binding at 1 µM (LCK): 0.1%; remaining binding at 1 µM (MAP4K5): 3.2%; remaining binding at 1 µM (MEK1): 94%; remaining binding at 1 µM (NEK2): 100%; remaining binding at 1 µM (PCTK3): 27%; remaining binding at 1 µM (PFCDPK1(P.falciparum)): 88%; remaining binding at 1 µM (PFTAIRE2): 3.6%; remaining binding at 1 µM (PKAC-beta): 78%; remaining binding at 1 µM (PLK2): 96%; remaining binding at 1 µM (PRKCQ): 74%; remaining binding at 1 µM (ROCK1): 100%; remaining binding at 1 µM (STK35): 59%; remaining binding at 1 µM (VRK2): 92%; remaining binding at 1 µM (YANK1): 93%; remaining binding at 1 µM (YANK3): 100%; remaining binding at 1 µM (YSK1): 100%

From patent US20230391768A2, “IMIDAZOPYRIDINE DERIVATIVES AND AZA-IMIDAZOPYRIDINE DERIVATIVES AS JANUS KINASE 2 INHIBITORS AND USES THEREOF” (Dana-Farber Cancer Institute, Inc., priority 2018, published 2023)
